Experimental data reported in patent EP2955182A1, “Pyridazinones for the treatment of cancer” (Max-Planck-Gesellschaft zur Förderung der Wissenschaften …, priority 2014, dated 2015).
pKd: −log10 of the molar value.

These molecules were tested against PDEδ (Homo sapiens, UniProt O43924) (assay: Fluorescence polarization competition binding assay (displacement titration of labeled Atorvastatin-probe)). Conditions: fluorescence polarization assay, displacement of fluorescent-tagged Atorvastatin analog from PDEδ; read-out: KD.
Text: Example C.2: Displacement titrations of labeled Atorvastatin-probe for the determination of KD values:
Table 3. KD values for compounds of general formula (I) as determined by means of fluorescence polarization assay

pKd, 7.00 to 7.52:
Cc1ccc(-n2nc3c(=O)n(CCCC(=O)NCc4ccco4)nc(C)c3c2C)cc1 [Compound 38, 4-(3,4-dimethyl-7-oxo-2-(p-tolyl)-2H-pyrazolo[3,4-d]pyridazin-6(7H)-yl)-N-(furan-2-ylmethyl)butanamide]
Cc1ccc(-n2nc3c(=O)n(CCCC(=O)NCC4CCCO4)nc(C)c3c2C)cc1 (centres unmarked) [Compound 39, 4-(3,4-dimethyl-7-oxo-2-(p-tolyl)-2H-pyrazolo[3,4-d]pyridazin-6(7H)-yl)-N-((tetrahydrofuran-2-yl)methyl)butanamide]
Cc1nn(CCCC(=O)NCc2ccco2)c(=O)c2nn(-c3ccccc3)c(C)c12 [Compound 30, 4-(3,4-dimethyl-7-oxo-2-phenyl-2H-pyrazolo[3,4-d]pyridazin-6(7H)-yl)-N-(furan-2-ylmethyl)butanamide]

pKd, > 7.52:
Cc1c2cnn(-c3ccccc3)c(=O)c2c(C)n1CCCC(=O)NC1CCCC(C)C1C (centres unmarked) [Compound 14, 4-(5,7-dimethyl-1-oxo-2-phenyl-1H-pyrrolo[3,4-d]pyridazin-6(2H)-yl)-N-(2,3-dimethylcyclohexyl)butanamide]
COc1ccc(CNC(=O)CCCn2nc(C)c3c(C)n(-c4ccc(C)cc4)nc3c2=O)cc1 [Compound 43, 4-(3,4-dimethyl-7-oxo-2-(p-tolyl)-2H-pyrazolo[3,4-d]pyridazin-6(7H)-yl)-N-(4-methoxybenzyl)butanamide]
Cc1ccc(CNC(=O)CCCn2nc(C)c3c(C)n(-c4ccc(C)cc4)nc3c2=O)cc1 [Compound 44, 4-(3,4-dimethyl-7-oxo-2-(p-tolyl)-2H-pyrazolo[3,4-d]pyridazin-6(7H)-yl)-N-(4-methylbenzyl)butanamide]
Cc1ccc(-n2nc3c(=O)n(CCCC(=O)NCCc4ccccc4)nc(C)c3c2C)cc1 [Compound 46, 4-(3,4-dimethyl-7-oxo-2-(p-tolyl)-2H-pyrazolo[3,4-d]pyridazin-6(7H)-yl)-N-phenethylbutanamide]
Cc1c2cnn(-c3ccccc3)c(=O)c2c(C)n1CCCC(=O)NC1CCCCC1 [Compound 11, N-cyclohexyl-4-(5,7-dimethyl-1-oxo-2-phenyl-1H-pyrrolo[3,4-d]pyridazin-6(2H)-yl)butanamide]
Cc1ccc(CCNC(=O)CCCn2nc(C)c3c(C)n(-c4ccc(C)cc4)nc3c2=O)cc1 [Compound 47, 4-(3,4-dimethyl-7-oxo-2-(p-tolyl)-2H-pyrazolo[3,4-d]pyridazin-6(7H)-yl)-N-(4-methylphenethyl)butanamide]
Cc1c2cnn(-c3ccccc3)c(=O)c2c(C)n1CCCC(=O)NCc1ccccc1Cl [Compound 4, N-(2-chlorobenzyl)-4-(5,7-dimethyl-1-oxo-2-phenyl-1H-pyrrolo[3,4-d]pyridazin-6(2H)-yl)butanamide]

pKd, < 6.00:
Cc1c2cnn(-c3ccccc3)c(=O)c2c(C)n1CCCc1nc(-c2ccc(C(F)(F)F)cc2)no1 [Compound 20, 5,7-dimethyl-2-phenyl-6-(3-(3-(4-(trifluoromethyl)phenyl)-1,2,4-oxadiazol-5-yl)propyl)-2,6-dihydro-1H-pyrrolo[3,4-d]pyridazin-1-one]
Cc1c2cnn(-c3ccccc3)c(=O)c2c(C)n1CCCc1nnc(-c2ccncc2)o1 [Compound 28, 5,7-dimethyl-2-phenyl-6-(3-(5-(pyridin-4-yl)-1,3,4-oxadiazol-2-yl)propyl)-2,6-dihydro-1H-pyrrolo[3,4-d]pyridazin-1-one]

pKd, 6.00 to 7.00:
Cc1c2cnn(-c3ccccc3)c(=O)c2c(C)n1CCCC(=O)NCc1ccccn1 [Compound 8, 4-(5,7-dimethyl-1-oxo-2-phenyl-1H-pyrrolo[3,4-d]pyridazin-6(2H)-yl)-N-(pyridin-2-ylmethyl)butanamide]
Cc1c2cnn(-c3ccccc3)c(=O)c2c(C)n1CCCc1nnc(-c2ccccc2)o1 [Compound 22, 5,7-dimethyl-2-phenyl-6-(3-(5-phenyl-1,3,4-oxadiazol-2-yl)propyl)-2,6-dihydro-1H-pyrrolo[3.4-d]pyridazin-1-one]
